# Laboratory results taken from patent US8227508B2, “Dietary and pharmaceutical compositions containing carnosol and/or rosmanol and their uses” (DSM IP Assets B.V., priority 2006, dated 2012).
# Tests used:
# [1] = molecular target: T1, monoamine oxidase A (MAO-A) (Homo sapiens, UniProt P21397); experiment: Monoamine oxidase A inhibition (p-tyramine substrate, HRP/vanillic acid readout); assay type: biochemical; settings: mean ± s.e.m., n = 3
# T1 sequence (P21397 1-527): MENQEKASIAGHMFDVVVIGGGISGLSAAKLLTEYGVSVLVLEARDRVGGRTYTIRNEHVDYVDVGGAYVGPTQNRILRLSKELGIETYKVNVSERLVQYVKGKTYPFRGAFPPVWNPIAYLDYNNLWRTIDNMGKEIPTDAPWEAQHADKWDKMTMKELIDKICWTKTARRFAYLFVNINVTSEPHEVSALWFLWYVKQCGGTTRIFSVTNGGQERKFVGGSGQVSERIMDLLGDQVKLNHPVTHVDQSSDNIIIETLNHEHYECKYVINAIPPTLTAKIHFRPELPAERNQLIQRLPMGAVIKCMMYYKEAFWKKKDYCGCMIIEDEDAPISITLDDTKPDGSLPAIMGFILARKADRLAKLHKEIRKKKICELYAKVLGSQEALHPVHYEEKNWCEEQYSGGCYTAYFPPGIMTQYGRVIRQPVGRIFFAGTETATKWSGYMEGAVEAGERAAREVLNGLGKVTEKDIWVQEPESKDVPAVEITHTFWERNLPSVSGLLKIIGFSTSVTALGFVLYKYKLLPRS
# Procedure: (§1) The organic amines p-tyramine or benzylamine were used as substrates for the monoamine oxidase A (MAO-A) and B (MAO-B) enzymes respectively. The H2O2 produced by this reaction was quantified by reaction with vanillic acid, catalysed by horse radish peroxidase (HRP).
# (§2) The reactions were carried out at 37° C. in polystyrene microtitre plates. The MAO enzymes (final concentration 2 U/ml) were mixed with either p-tyramine (Sigma, final concentration 0.5 mM) or benzylamine (Sigma, final concentration 0.5 mM) as appropriate and the chromogenic solution (containing vanillic acid (Fluka), 4-aminoantipyrine (Fluka) and horse radish peroxidase (Sigma), final concentrations 0.25 mM, 0.125 mM and 1 U/ml, respectively) in 0.2 M potassium phosphate buffer, pH 7.6. After 40 min incubation, plates were analysed in a microtitre plate absorbance reader, e.g. Spectramax M5 (Molecular Devices Corporation), at 495 nm.
# (§3) The effects of carnosol and rosmanol on the monoamine oxidase enzymes were determined by their inclusion in the assay at a range of concentrations between 0.03 and 100 μM for 10 minutes prior to and during the incubation with substrate. To determine the effect of the compounds on the HRP-catalysed portion of the reaction, the MAO enzyme was replaced by H2O2 (Molecular Probes, final concentration 50 μM). […]
# [2] = molecular target: T2, human glycine transporter 1b (GlyT1) (Homo sapiens, UniProt P48067); experiment: Glycine uptake inhibition in CHO cells expressing GlyT1; assay type: cell-based; settings: 60 nM [3H]-glycine
# T2 construct: expressed in transfected cells; host or cells: CHO
# T2 sequence (P48067 1-652 isoform P48067-3): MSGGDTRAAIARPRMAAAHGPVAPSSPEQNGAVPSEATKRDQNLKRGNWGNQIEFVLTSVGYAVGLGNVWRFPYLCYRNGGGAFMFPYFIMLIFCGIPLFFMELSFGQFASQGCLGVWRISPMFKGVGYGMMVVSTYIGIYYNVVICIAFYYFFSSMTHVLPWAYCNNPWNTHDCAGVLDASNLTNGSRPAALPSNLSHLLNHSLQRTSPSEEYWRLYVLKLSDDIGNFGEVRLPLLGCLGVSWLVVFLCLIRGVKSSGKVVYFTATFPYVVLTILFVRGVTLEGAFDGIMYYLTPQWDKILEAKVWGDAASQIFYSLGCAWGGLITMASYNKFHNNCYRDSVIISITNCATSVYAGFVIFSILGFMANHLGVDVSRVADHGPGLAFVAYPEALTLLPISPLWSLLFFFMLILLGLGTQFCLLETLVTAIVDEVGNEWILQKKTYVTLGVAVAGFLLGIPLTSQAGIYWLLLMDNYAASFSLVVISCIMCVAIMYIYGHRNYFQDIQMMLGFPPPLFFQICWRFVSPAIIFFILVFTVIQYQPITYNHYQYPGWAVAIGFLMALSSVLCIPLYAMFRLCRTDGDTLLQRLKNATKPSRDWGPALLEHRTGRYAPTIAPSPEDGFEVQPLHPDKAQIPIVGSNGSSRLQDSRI
# Procedure: CHO cells stably expressing the human glycine transporter 1b cDNA (GlyT1) were routinely grown in Dulbecco's Modified Eagle's Medium (Invitrogen, Carlsbad, USA) containing 10% dialysed foetal calf serum, penicillin, streptomycin, proline and the antibiotic G418. Cells were harvested by trypsinisation one day prior to the assay and were seeded in the above mentioned medium. Immediately prior to the assay, the medium was replaced by uptake buffer containing 150 mM NaCl, 1 mM CaCl2, 2.5 mM KCl, 2.5 mM MgCl2, 10 mM Glucose and 10 mM N-2-hydroxyethylpiperazine-N′-2-ethanesulfonic acid (HEPES buffer).
# Glycine uptake into the cells was determined by addition of 60 nM radiolabelled [^3H]-glycine (Amersham Biosciences GE Healthcare, Slough, UK) and incubation for 30 minutes at room temperature. Following removal of unincorporated label by gentle washing three times with the above buffer, incorporated glycine was quantified by liquid scintillation counting.
# [3] = molecular target: T3, monoamine oxidase B (MAO-B) (Homo sapiens, UniProt P27338); experiment: Monoamine oxidase B inhibition (benzylamine substrate, HRP/vanillic acid readout); assay type: biochemical; settings: mean ± s.e.m., n = 2
# T3 sequence (P27338 1-520): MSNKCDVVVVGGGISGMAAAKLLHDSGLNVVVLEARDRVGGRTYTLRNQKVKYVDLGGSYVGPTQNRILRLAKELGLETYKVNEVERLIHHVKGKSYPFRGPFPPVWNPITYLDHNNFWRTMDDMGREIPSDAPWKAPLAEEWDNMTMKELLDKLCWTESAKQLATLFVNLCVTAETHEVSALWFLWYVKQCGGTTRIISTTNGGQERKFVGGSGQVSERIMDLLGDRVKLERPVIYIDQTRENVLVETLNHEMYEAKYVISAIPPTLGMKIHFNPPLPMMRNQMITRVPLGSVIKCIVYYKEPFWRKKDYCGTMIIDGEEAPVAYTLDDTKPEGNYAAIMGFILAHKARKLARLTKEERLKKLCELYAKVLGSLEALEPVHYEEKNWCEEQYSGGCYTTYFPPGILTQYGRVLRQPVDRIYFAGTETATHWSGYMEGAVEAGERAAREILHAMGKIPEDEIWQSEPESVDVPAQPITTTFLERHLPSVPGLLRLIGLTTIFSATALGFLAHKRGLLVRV
# Procedure: as §1, §2, §3
SMILES,IC50 [1] [µM],IC50 ([2]; read-out: IC50 for tritiated glycine uptake) [µM],IC50 [3] [µM],IC50 for tritiated glycine uptake (result in words) [2]
"CC(C)c1cc2c(c(O)c1O)[C@@]13CCCC(C)(C)[C@@H]1C[C@@H]2OC3=O [Carnosol, carnosol]",4 ± 0.1,29.3,107 ± 19.9,–
"CC(C)c1cc2c(c(O)c1O)[C@@]13CCCC(C)(C)[C@@H]1[C@H](OC3=O)[C@H]2O [Rosmanol, rosmanol]",3.02 ± 0.48,–,73.3 ± 11.3,inactive
